Results as given in article PMC3914206.

What was measured:
panel of 442 kinases [1] = biological target: T1, panel of 442 kinases (Homo sapiens, UniProt P54762); type: binding; details: Compound Concentration 10 µM
T1 construct: purchased KINOMEscan
T1 sequence (P54762 18-984): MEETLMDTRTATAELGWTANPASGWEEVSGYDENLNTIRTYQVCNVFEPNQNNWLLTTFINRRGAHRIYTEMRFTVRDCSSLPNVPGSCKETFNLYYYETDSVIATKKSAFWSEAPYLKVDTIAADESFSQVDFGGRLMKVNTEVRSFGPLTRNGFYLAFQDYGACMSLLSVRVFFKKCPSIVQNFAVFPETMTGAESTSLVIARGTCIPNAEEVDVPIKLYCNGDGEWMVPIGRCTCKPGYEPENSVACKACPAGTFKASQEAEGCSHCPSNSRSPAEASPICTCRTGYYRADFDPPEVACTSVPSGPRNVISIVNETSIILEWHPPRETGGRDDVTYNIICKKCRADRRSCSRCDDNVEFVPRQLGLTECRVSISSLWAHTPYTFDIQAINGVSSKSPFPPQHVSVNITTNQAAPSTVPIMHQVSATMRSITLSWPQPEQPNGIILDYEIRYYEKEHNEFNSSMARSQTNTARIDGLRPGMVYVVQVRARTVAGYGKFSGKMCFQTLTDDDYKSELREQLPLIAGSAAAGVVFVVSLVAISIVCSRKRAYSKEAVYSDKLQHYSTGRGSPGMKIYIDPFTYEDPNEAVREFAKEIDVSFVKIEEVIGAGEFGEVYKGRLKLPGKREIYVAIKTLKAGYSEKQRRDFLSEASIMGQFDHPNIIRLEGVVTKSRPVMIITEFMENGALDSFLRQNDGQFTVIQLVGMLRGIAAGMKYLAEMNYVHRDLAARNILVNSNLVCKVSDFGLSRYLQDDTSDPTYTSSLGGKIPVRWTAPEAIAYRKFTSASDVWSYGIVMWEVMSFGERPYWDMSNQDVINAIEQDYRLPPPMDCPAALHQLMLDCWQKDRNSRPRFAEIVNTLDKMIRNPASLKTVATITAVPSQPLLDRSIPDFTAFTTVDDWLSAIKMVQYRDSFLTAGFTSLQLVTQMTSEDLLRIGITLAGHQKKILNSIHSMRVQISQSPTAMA
Source text: (§1) We assessed the selectivity of members of this scaffold using the KINOMEscan methodology across a near comprehensive panel of 442 kinases [[18,27]].

panel of 442 kinases [2] = biological target: T2, panel of 442 kinases (Homo sapiens, UniProt Q13188); type: binding; details: Compound Concentration 10 µM
T2 construct: purchased KINOMEscan
T2 sequence (Q13188 1-491): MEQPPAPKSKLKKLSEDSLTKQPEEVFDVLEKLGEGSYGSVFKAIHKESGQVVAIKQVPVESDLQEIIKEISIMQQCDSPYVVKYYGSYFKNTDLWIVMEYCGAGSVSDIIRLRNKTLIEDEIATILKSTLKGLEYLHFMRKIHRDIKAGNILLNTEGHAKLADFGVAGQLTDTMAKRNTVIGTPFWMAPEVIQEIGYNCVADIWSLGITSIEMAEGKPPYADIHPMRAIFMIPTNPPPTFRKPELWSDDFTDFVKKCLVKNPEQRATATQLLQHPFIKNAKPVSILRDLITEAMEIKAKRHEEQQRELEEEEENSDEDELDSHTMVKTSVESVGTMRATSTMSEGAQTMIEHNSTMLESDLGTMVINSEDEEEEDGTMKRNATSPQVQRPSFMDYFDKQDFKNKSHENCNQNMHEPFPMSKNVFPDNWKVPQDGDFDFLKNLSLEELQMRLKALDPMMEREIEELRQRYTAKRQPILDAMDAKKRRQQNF
Source text: as §1

SMILES | KINOMEscan: EPHB1 (panel of 442 kinases [1]) | KINOMEscan: MST2 (panel of 442 kinases [2])
COc1cc(C(=O)N2CCC(N3CCN(C)CC3)CC2)ccc1Nc1ncc2c(n1)N(C)c1ccccc1C(=O)N2C [15 (LRRK2-IN-1)] | 98 | 71
COc1cc(C(=O)N2CCC(N3CCN(C)CC3)CC2)ccc1Nc1ncc2c(n1)N(C1CCCC1)c1ccccc1C(=O)N2C [Compound 25, 11-cyclopentyl-2-((2-methoxy-4-(4-(4-methylpiperazin-1-yl)piperidine-1-carbonyl)phenyl)amino)-5-methyl-5H-benzo[e]pyrimido[5,4-b][1,4]diazepin-6(11H)-one] | 95 | 100
CCOc1cc(C(=O)N2CCC(N3CCN(C)CC3)CC2)ccc1Nc1ncc2c(n1)N(C1CCCC1)c1ccccc1C(=O)N2C [Compound 26] | 95 | 100
